# Results published in publication PMC8777613, “Effect of Hydroxyl Groups Esterification with Fatty Acids on the Cytotoxicity and Antioxidant Activity of Flavones” (Molecules, 2022).
# Read-outs that look alike come from different tables or passages of the source.
# Assays:
# [1] = tested on: human prostate cancer cells (PC3); test: MTT dye reduction viability test, PC3; assay type: cell-based; conditions: for IC50 / viability at 10 µM / viability at 20 µM / viability at 40 µM / viability at 60 µM / viability at 80 µM / viability at 100 µM: Homo sapiens; for IC50: read-out: Cytotoxic activity IC50, PC3; for viability at 10 µM: PC3, 10 µM; for viability at 20 µM: PC3, 20 µM; for viability at 40 µM: PC3, 40 µM; for viability at 60 µM: PC3, 60 µM; for viability at 80 µM: PC3, 80 µM
# Description: (§1) We have chosen two types of cell culture lines: human prostate cancer cells (PC3) and normal human immortal keratinocyte cells (HaCaT) (Table 1).
# (§2) Human prostate cancer cells (PC3) and human immortal keratinocyte cell line from adult human skin (HaCaT) were obtained from American Type Culture Collection (Teddington, UK) and cultured according to its instructions RPMI 1640 (L0490) medium or DMEM (L0102) medium, respectively, in a 95% air and 5% CO2 humidified incubator at 37 °C. Both media (Biowest) were supplemented with 10% fetal bovine serum (FBS), 100 U/mL penicillin and 100 μg/mL streptomycin. 10 mM stock solutions of tested compounds in DMSO were prepared.
# (§3) To assess the cells growth inhibition, the MTT dye reduction test was preformed based on the method described by Präbst et al.. Both PC3 and HaCaT cells (1 × 10^3/well) were seeded into 96-well plates and incubated for 24 h to attach to the bottom of the well in appropriate medium (200 μL) and treated with tested compounds (0–100 μM). The medium with compounds was removed after 72 h and MTT (0.5 mg/mL) in fresh growth medium without serum was added to each well. The plates were incubated in dark for 4 h at 37 °C. Then, the solution in each well was removed and refilled with 100 μL DMSO: isopropanol (1:1) to dissolve formazon crystals. The optical density was measured with an UVM 340 (ASYS Hitech GmbH, Austria) microplate reader at 570 nm. Replicates of three wells for each dosage, including vehicle control, were analyzed for each experiment. The experiments were conducted in triplicate. The results are expressed as IC50 values. The value of IC50 was estimated using CompuSyn version 1.0.
# [2] = tested on: rat brain homogenate; test: Lipid peroxidation (MDA/TBA) induced by FeCl2 and ascorbic acid; assay type: biochemical; conditions: for MDA concentration: oxidation by 0.1% FeCl2 and 1 mM ascorbic acid, 1 h 37 °C, control 9.644 ± 1.570
# Description: The antioxidant potential of the new flavone derivatives was assessed based on the analysis of malondialdehyde concentration formed as a product of lipid oxidation stimulated by iron (II) ions.
# After preparation, the brain was placed on an ice plate and washed with cold 0.9% NaCl. 10% (m/v) brain solution was obtained by homogenization in cold 10 mM TRIS-HCl buffer, pH = 7.5. The homogenate was centrifuged (2000 rpm, 10 min, 4 °C) to obtain supernatant 1 (S1).
# 100 µM stock solutions of test compounds in DMSO were prepared. The test compound solution was added to a […] S1 homogenate to a final concentration of 10 µM.
# The oxidation reaction was induced by adding to the samples with or without the test compounds freshly prepared solutions: 0.1% FeCl2 (0.2 mL) and 1 mM ascorbic acid (0.4 mL). After incubation for 1 h at 37 °C, the reaction was stopped by adding 8.1% sodium dodecyl sulfate (SDS) solution. In order to determine the concentration of MDA, the acetic acid/HCl buffer at pH = 3.4 and 120 μL of 0.8% thiobarbituric acid (TBA) solution at pH = 6 were added to the samples. The samples were incubated for 1 h at 100 °C. After incubation, the samples were cooled on ice and centrifuged for 10 min at 4000 RPM. The absorbance was measured at a wavelength of 532 nm. Blank content: 0.5 mL of acetate buffer + 0.5 mL of TBA solution.
# Calculation of malondialdehyde (MDA) concentration (Equation (1)):(1) MDA concentration=∆ A532 nm × 1.56 ×10^−6 [nmol MDA/h/g tissue]
# [3] = MTT dye reduction viability test, HaCaT; assay type: cell-based, human; conditions: human; for viability at 72 h, 10 µM / viability at 72 h, 20 µM / viability at 72 h, 40 µM / viability at 72 h, 60 µM / viability at 72 h, 80 µM / viability at 72 h, 100 µM: HaCaT
# Description: as §1, §2, §3
# [4] = 72 h, representative MTT result (Table S1 A)
# [5] = PC3, 100 µM, 72 h, representative MTT result (Table S1 A), read-out: Cells viability
# [6] = HaCaT cells (immortal keratinocytes), 72 h exposure, MTT, mean ± SD, read-out: Cytotoxic activity IC50, HaCaT
# [7] = HaCaT cells (immortal keratinocytes), 72 h, representative MTT result (Table S1 B)
# [8] = HaCaT cells (immortal keratinocytes), 100 µM, 72 h, representative MTT result (Table S1 B), read-out: Cells viability
melting point [°C],SMILES,"IC50 ([1]; 72 h exposure, MTT, mean ± SD) [µM]","viability at 10 µM [1, 4] [%]","viability at 20 µM [1, 4] [%]","viability at 40 µM [1, 4] [%]","viability at 60 µM [1, 4] [%]","viability at 80 µM [1, 4] [%]","viability at 100 µM [1, 5] [%]",MDA concentration ([2]; 10 µM compound) [mM × 10^−3],"IC50 at 72 h [3, 6] [µM]","viability at 72 h, 10 µM [3, 7] [%]","viability at 72 h, 20 µM [3, 7] [%]","viability at 72 h, 40 µM [3, 7] [%]","viability at 72 h, 60 µM [3, 7] [%]","viability at 72 h, 80 µM [3, 7] [%]","viability at 72 h, 100 µM [3, 8] [%]",also measured
,"O=C1CC(c2ccccc2)Oc2ccc(O)cc21 (stereo not drawn) [6-Hydroxy-Flavanone, 6-hydroxy-flavanone, reference compound]",> 100,96.4,96,96,96.7,96.4,96.8,7.077 ± 1.815,> 100,99.7,115,113,104,72.2,74.4,"viability at 100 µM ([1]; PC3, 100 μM, 72 h incubation, read-out: cells viability compared to control cells): 89%; reduction of the level of MDA compared to the control sample ([2]; 10 µM compound, rat brain homogenate): 26.62%; viability at 72 h, 100 µM ([3]; HaCaT cells (immortal keratinocytes), 100 μM, 72 h incubation, read-out: cells viability compared to control cells): 73%"
,"CCCCCC=CCC=CCCCCCCCC(=O)Oc1ccc2c(c1)C(=O)CC(c1ccccc1)O2 (stereo not drawn) [6-Linoleic-Flavanone, 6-hydroxy-flavanone linoleic ester]",48.3 ± 8.73,94.7,76.5,53.3,45.4,31.2,20.2,,80 ± 4.75,95.7,93.8,86.8,73.4,50.3,34.9,
129.4 to 130.8,"CC=CC=CC(=O)Oc1ccc2c(c1)C(=O)CC(c1ccccc1)O2 (stereo not drawn) [6-Sorbic-Flavanone, 6-hydroxy-flavanone sorbic ester]",54.7 ± 5.25,95.6,88.7,82.1,41.3,28.7,32.6,6.938 ± 0.392,79.8 ± 2.21,98.7,96.7,89.6,75.7,56.7,31.4,antioxidant potential compared to the original compound (in words) ([2]; MDA in rat brain homogenate): slight increase in antioxidant potential
,"CCCCCC=CCC=CCCCCCCCC(=O)Oc1ccc2c(=O)cc(-c3ccccc3)oc2c1 [7-Linoleic-Flavone, 7-hydroxy-flavone linoleic ester]",41.2 ± 2.3,84.6,70.4,46.7,35.9,34.3,39.5,8.010 ± 0.008,65 ± 4.12,88.4,73.2,74.5,57,44.6,34,
,"CCC=CCC=CCC=CCCCCCCCC(=O)Oc1ccc2c(=O)cc(-c3ccccc3)oc2c1 [7-Linolenic-Flavone, 7-hydroxy-flavone linolenic ester]",> 100,90.2,86.3,81.7,79.4,86.8,86.7,,45.4 ± 9.2,106,90.5,66,19.4,15.8,14.6,"cytotoxic potential in PC3 cells (in words) ([1]; PC3, 0–100 μM, 72 h): no cytotoxic potential"
73.3 to 74.5,"CCCCCCCCC=CCCCCCCCC(=O)Oc1ccc2c(=O)cc(-c3ccccc3)oc2c1 [7-Oleic-Flavone, 7-hydroxy-flavone oleic ester]",39.3 ± 2.11,92.2,80.8,48.2,41,42.2,38.9,8.465 ± 0.834,44.9 ± 6.44,95.3,79.3,51.9,39.9,38.7,44.9,
137.8 to 139.7,"CC=CC=CC(=O)Oc1ccc2c(=O)cc(-c3ccccc3)oc2c1 [7-Sorbic-Flavone, 7-hydroxy-flavone sorbic ester]",94.3 ± 4.24,84,80.9,93.6,74.5,69.6,75.2,8.361 ± 0.050,50.8 ± 2.48,97.5,87.2,80.1,41,57.4,43.7,
84.5 to 85.7,"CCCCCCCCCCCCCCCCCC(=O)Oc1ccc2c(=O)cc(-c3ccccc3)oc2c1 [7-Stearic-Flavone, 7-hydroxy-flavone stearic ester]",33.2 ± 4.81,100,87.7,41.8,32.2,47.9,27.5,8.151 ± 0.343,45.6 ± 7.2,95.8,65.3,59.1,39.8,35.7,20.7,
,"O=c1cc(-c2ccccc2)oc2ccc(O)cc12 [Compound 13, 6-Hydroxy-Flavone, reference compound]",,89.4,87.8,99,110,87,73.2,,,96.4,83.8,77.9,95.1,84.9,87.8,
,"COc1cccc2c1C(=O)c1c(O)c3c(c(O)c1C2=O)C[C@@](O)(C(=O)CO)C[C@@H]3O[C@H]1C[C@H](N)[C@H](O)[C@H](C)O1 [doxorubicin, reference compound]",,,,,,,,,,,,,,,,"IC50 ([1]; 72 h): 0.29 µM; IC50 at 72 h ([3]; Cytotoxic activity IC50, HaCaT): 0.31 µM"
